From ChEMBL document CHEMBL6114970, “Development of carbazole-based molecules for inhibition of mutant hSOD1 protein aggregation in Amyotrophic Lateral Sclerosis” (Bioorg Med Chem, 2025)
Active and inactive are the calls of the source. The calls are words filed in the database; no cut-off is given here.

Experiments:
N2a [1] = assay: Cytotoxicity against mouse Neuro2a cells over expressing hSOD1 G85R mutant assessed as reduction in cell viability at 25 uM measured after 48 hrs by MTT assay; type: toxicity, cell-based
N2a [2] = assay: Protection against MG132-induced SOD1 aggregation-associated apoptosis in mouse Neuro2a cells over expressing hSOD1 G85R mutant assessed as upregulation of Bcl-2 expression preincubated for 24 hrs followed by MG132 addition and measured after 24 hrs by Western blot analysis; type: functional, cell-based; details: time 48.0 hrs
[3] = (§1) Inhibition of TCEP-treated human SOD1 G85R mutant aggregation measured after 24 hrs by thioflavin-T fluorescence assay
Homo sapiens [4] = organism: Homo sapiens; assay: as §1
Homo sapiens [5] = organism: Homo sapiens; assay: Inhibition of TCEP-treated human SOD1 G93A mutant aggregation assessed as formation of few slender fibrils at 50 uM measured after 24 hrs by 1% uranyl acetate staining based transmission electron microscopy
N2a [6] = assay: Cytotoxicity against mouse Neuro2a cells over expressing hSOD1 G85R mutant assessed as reduction in cell viability up to 10 uM measured after 48 hrs by MTT assay; type: toxicity, cell-based
Homo sapiens [7] = organism: Homo sapiens; assay: Inhibition of TCEP-treated human SOD1 G85R mutant aggregation assessed as formation of few slender fibrils at 50 uM measured after 24 hrs by 1% uranyl acetate staining based transmission electron microscopy
N2a [8] = assay: (§2) Protection against MG132-induced SOD1 aggregation-associated apoptosis in mouse Neuro2a cells over expressing hSOD1 G85R mutant assessed as late apoptotic cells preincubated for 24 hrs followed by MG132 addition and measured after 24 hrs by Annexin V-APC/propidium iodide staining based flow cytometry (reference value: 20.93 to 23.01 %); type: functional; details: time 48 hrs
N2a [9] = assay: Protection against MG132-induced SOD1 aggregation-associated oxidative stress in mouse Neuro2a cells over expressing hSOD1 G85R mutant assessed as reduction in ROS level at 10 uM preincubated for 24 hrs followed by MG132 addition and measured after 24 hrs by H2DCFDA dye based flow cytometry; type: functional, cell-based; details: time 48.0 hrs
Homo sapiens [10] = organism: Homo sapiens; assay: Inhibition of TCEP-treated human SOD1 A4V mutant aggregation assessed as size of protein at 50 uM measured after 24 hrs at 37 deg C by dynamic light scattering analysis (reference value: 154.4 nm)
N2a [11] = assay: Protection against MG132-induced SOD1 aggregation-associated cytotoxicity in mouse Neuro2a cells over expressing hSOD1 G85R mutant assessed as restoration of cell viability by phase contrast microscopy; type: functional, cell-based
Homo sapiens [12] = organism: Homo sapiens; assay: Inhibition of TCEP-treated human SOD1 G85R mutant aggregation at 50 uM measured after 24 hrs by thioflavin-T fluorescence assay relative to control
N2a [13] = assay: Protection against MG132-induced SOD1 aggregation-associated cytotoxicity in mouse Neuro2a cells over expressing hSOD1 G85R mutant assessed as cell viability at 5 to 10 uM preincubated for 24 hrs followed by MG132 addition and measured after 24 hrs by MTT assay (reference value: 45%); type: functional; details: dose 5-10 µM, time 48 hrs
Homo sapiens [14] = organism: Homo sapiens; assay: Inhibition of TCEP-treated human SOD1 G93A mutant aggregation assessed as size of protein at 50 uM measured after 24 hrs at 37 deg C by dynamic light scattering analysis (reference value: 84.38 nm)
Homo sapiens [15] = organism: Homo sapiens; assay: Inhibition of TCEP-treated human SOD1 A4V mutant aggregation at 50 uM measured after 24 hrs by thioflavin-T fluorescence assay relative to control
Homo sapiens [16] = organism: Homo sapiens; assay: Inhibition of TCEP-treated human SOD1 G85R mutant aggregation assessed as size of protein at 50 uM measured after 24 hrs at 37 deg C by dynamic light scattering analysis (reference value: 151.1 nm)
[17] = (§3) Inhibition of TCEP-treated human SOD1 A4V mutant aggregation measured after 24 hrs by thioflavin-T fluorescence assay
Homo sapiens [18] = organism: Homo sapiens; assay: as §3
N2a [19] = assay: Protection against MG132-induced SOD1 aggregation-associated cytotoxicity in mouse Neuro2a cells over expressing hSOD1 G85R mutant assessed as increase in cell viability at 1 uM preincubated for 24 hrs followed by MG132 addition and measured after 24 hrs by MTT assay; type: functional, cell-based; details: time 48.0 hrs
N2a [20] = assay: as §2, with “necrotic” for “late apoptotic”, “2.23” for “20.93 to 23.01”; type: functional; details: time 48 hrs
N2a [21] = assay: Protection against MG132-induced SOD1 aggregation-associated apoptosis in mouse Neuro2a cells over expressing hSOD1 G85R mutant assessed as upregulation of Xiap expression preincubated for 24 hrs followed by MG132 addition and measured after 24 hrs by Western blot analysis; type: functional, cell-based; details: time 48.0 hrs
Homo sapiens [22] = organism: Homo sapiens; assay: Inhibition of TCEP-treated human SOD1 A4V mutant aggregation assessed as formation of few slender fibrils at 50 uM measured after 24 hrs by 1% uranyl acetate staining based transmission electron microscopy
N2a [23] = assay: as §2, with “early” for “late”, “1.41” for “20.93 to 23.01”; type: functional; details: time 48 hrs
[24] = (§4) Inhibition of TCEP-treated human SOD1 G93A mutant aggregation measured after 24 hrs by thioflavin-T fluorescence assay
Homo sapiens [25] = organism: Homo sapiens; assay: as §4
N2a [26] = assay: Protection against MG132-induced SOD1 aggregation-associated cytotoxicity in mouse Neuro2a cells over expressing hSOD1 G85R mutant assessed as restoration of normal morphology by phase contrast microscopy; type: functional, cell-based
Homo sapiens [27] = organism: Homo sapiens; assay: Inhibition of TCEP-treated human SOD1 G93A mutant aggregation at 50 uM measured after 24 hrs by thioflavin-T fluorescence assay relative to control

SMILES: COc1cc(/C=C/C(=O)CC(=O)/C=C/c2ccc(O)c(OC)c2)ccc1O [CURCUMIN]
- Activity (N2a [1]): Toxic
- Activity (N2a [2]): Active
- IC50 [3]: 64.1 µM
- inhibition (Homo sapiens [4]): Dose-dependent-effect
- inhibition (Homo sapiens [5]): Active
- Activity (N2a [6]): Non-toxic
- inhibition (Homo sapiens [7]): Active
- Activity (N2a [8]): 8.19%
- Activity (N2a [9]): Active; Significant Effect Observed
- Activity (Homo sapiens [10]): 52.1 nm
- Activity (N2a [11]): Active
- inhibition (Homo sapiens [12]): 42.8%
- Activity (N2a [13]): 60%
- Activity (Homo sapiens [14]): 31.7 nm
- inhibition (Homo sapiens [15]): 58.7%
- Activity (Homo sapiens [16]): 40.2 nm
- IC50 [17]: 40.9 µM
- inhibition (Homo sapiens [18]): Dose-dependent-effect
- Activity (N2a [19]): inactive
- Activity (N2a [20]): 2.58%
- Activity (N2a [21]): Active
- inhibition (Homo sapiens [22]): Active
- Activity (N2a [23]): 0.97%
- IC50 [24]: 32.3 µM
- inhibition (Homo sapiens [25]): Dose-dependent-effect
- Activity (N2a [26]): Active

SMILES: CCn1c2ccccc2c2cc(NC(=O)NNC(=S)NCc3ccccc3)ccc21
- inhibition (Homo sapiens [12]): 56.4%
- inhibition (Homo sapiens [27]): 69.8%
- inhibition (Homo sapiens [15]): 54.2%

SMILES: Nc1nc2ccc(OC(F)(F)F)cc2s1
- inhibition (Homo sapiens [12]): inactive
- inhibition (Homo sapiens [27]): inactive
- inhibition (Homo sapiens [15]): 9.88%

SMILES: CCn1c2ccccc2c2cc(NC(=O)NNC(=S)NCCc3ccccc3)ccc21
- inhibition (Homo sapiens [12]): 66.1%
- inhibition (Homo sapiens [27]): 65.4%
- inhibition (Homo sapiens [15]): 68.5%

SMILES: CCn1c2ccccc2c2cc(NC(=O)NNC(=O)Nc3ccc(F)cc3)ccc21
- inhibition (Homo sapiens [12]): 43.4%
- inhibition (Homo sapiens [27]): 71.9%
- inhibition (Homo sapiens [15]): 46.1%

SMILES: CCn1c2ccccc2c2cc(NC(=O)NNC(=O)Nc3ccc(Cl)cc3)ccc21
- inhibition (Homo sapiens [12]): 63.3%
- inhibition (Homo sapiens [27]): 33.9%
- inhibition (Homo sapiens [15]): 59.3%

SMILES: CCn1c2ccccc2c2cc(NC(=O)NNC(=S)Nc3ccccc3)ccc21
- Activity (N2a [1]): Toxic
- Activity (N2a [2]): Active
- IC50 [3]: 31.3 µM
- inhibition (Homo sapiens [4]): Dose-dependent-effect
- inhibition (Homo sapiens [5]): Active; Displayed Better Reduction In Aggregate Formation Than Curcumin
- Activity (N2a [6]): Non-toxic
- inhibition (Homo sapiens [7]): Active; Displayed Better Reduction In Aggregate Formation Than Curcumin
- Activity (N2a [8]): 8.26%
- Activity (N2a [9]): Active; Significant Effect Observed
- Activity (Homo sapiens [10]): 44.6 nm
- Activity (N2a [11]): Active
- inhibition (Homo sapiens [12]): 74.8%
- inhibition (Homo sapiens [27]): 88.3%
- Activity (N2a [13]): 60%
- Activity (Homo sapiens [14]): 25.2 nm
- inhibition (Homo sapiens [15]): 71.3%
- Activity (Homo sapiens [16]): 36.3 nm
- IC50 [17]: 32.4 µM
- inhibition (Homo sapiens [18]): Dose-dependent-effect
- Activity (N2a [19]): inactive
- Activity (N2a [20]): 2.64%
- Activity (N2a [21]): Active
- inhibition (Homo sapiens [22]): Active; Displayed Better Reduction In Aggregate Formation Than Curcumin
- Activity (N2a [23]): 1.04%
- IC50 [24]: 26 µM
- inhibition (Homo sapiens [25]): Dose-dependent-effect
- Activity (N2a [26]): Active

SMILES: CCn1c2ccccc2c2cc(NC(=O)NNC(=S)Nc3ccc(F)cc3)ccc21
- Activity (N2a [1]): Toxic
- Activity (N2a [2]): Active
- IC50 [3]: 23.4 µM
- inhibition (Homo sapiens [4]): Dose-dependent-effect
- inhibition (Homo sapiens [5]): Active; Displayed Better Reduction In Aggregate Formation Than Curcumin
- Activity (N2a [6]): Non-toxic
- inhibition (Homo sapiens [7]): Active; Displayed Better Reduction In Aggregate Formation Than Curcumin
- Activity (N2a [8]): 5.52%
- Activity (N2a [9]): Active; Showed Better Reduction Compared To Curcumin
- Activity (Homo sapiens [10]): 27.7 nm
- Activity (N2a [11]): Active
- inhibition (Homo sapiens [12]): 76.8%
- inhibition (Homo sapiens [27]): 80.7%
- Activity (N2a [13]): 60%
- Activity (Homo sapiens [14]): 21.7 nm
- inhibition (Homo sapiens [15]): 76.2%
- Activity (Homo sapiens [16]): 26.4 nm
- IC50 [17]: 28.1 µM
- inhibition (Homo sapiens [18]): Dose-dependent-effect
- Activity (N2a [19]): inactive
- Activity (N2a [20]): 2.13%
- Activity (N2a [21]): Active
- inhibition (Homo sapiens [22]): Active; Displayed Better Reduction In Aggregate Formation Than Curcumin
- Activity (N2a [23]): 1.19%
- IC50 [24]: 29.1 µM
- inhibition (Homo sapiens [25]): Dose-dependent-effect
- Activity (N2a [26]): Active

SMILES: CCn1c2ccccc2c2cc(NC(=O)NNC(=S)Nc3ccc(OC(F)(F)F)cc3)ccc21
- inhibition (Homo sapiens [12]): 63.2%
- inhibition (Homo sapiens [27]): 72.3%
- inhibition (Homo sapiens [15]): 69.7%

SMILES: CCn1c2ccccc2c2cc(NC(=O)NNC(=O)NCc3ccccc3)ccc21
- inhibition (Homo sapiens [12]): 70.7%
- inhibition (Homo sapiens [27]): 25.1%
- inhibition (Homo sapiens [15]): 31.9%

SMILES: CCn1c2ccccc2c2cc(NC(=O)NNC(=O)Nc3ccc(OC)cc3)ccc21
- inhibition (Homo sapiens [12]): 38.2%
- inhibition (Homo sapiens [27]): 61.8%
- inhibition (Homo sapiens [15]): 40.6%

SMILES: CCn1c2ccccc2c2cc(NC(=O)NNC(=O)NCCc3ccccc3)ccc21
- inhibition (Homo sapiens [12]): 70%
- inhibition (Homo sapiens [27]): 44.5%
- inhibition (Homo sapiens [15]): 62.8%

SMILES: CCn1c2ccccc2c2cc(NC(=O)NNC(=S)Nc3ccc(OC)cc3)ccc21
- inhibition (Homo sapiens [12]): 70.6%
- inhibition (Homo sapiens [27]): 72.5%
- inhibition (Homo sapiens [15]): 58.8%

SMILES: CCn1c2ccccc2c2cc(NC(=O)NNC(=O)Nc3ccccc3)ccc21
- inhibition (Homo sapiens [12]): 65.9%
- inhibition (Homo sapiens [27]): 63.4%
- inhibition (Homo sapiens [15]): 46.9%

SMILES: CCn1c2ccccc2c2cc(NC(=O)NNC(=O)Nc3ccc([N+](=O)[O-])cc3)ccc21
- inhibition (Homo sapiens [12]): 43.1%
- inhibition (Homo sapiens [27]): 48.2%
- inhibition (Homo sapiens [15]): 55.3%

SMILES: CCn1c2ccccc2c2cc(NC(=O)NNC(=S)Nc3ccc(Cl)cc3)ccc21
- inhibition (Homo sapiens [12]): 58.3%
- inhibition (Homo sapiens [27]): 76.4%
- inhibition (Homo sapiens [15]): 61.1%

SMILES: CCn1c2ccccc2c2cc(NC(=O)NNC(=O)Nc3ccc(OC(F)(F)F)cc3)ccc21
- inhibition (Homo sapiens [12]): 63.8%
- inhibition (Homo sapiens [27]): 73.8%
- inhibition (Homo sapiens [15]): 47.1%

SMILES: CCn1c2ccccc2c2cc(NC(=O)NNC(=S)Nc3ccc([N+](=O)[O-])cc3)ccc21
- inhibition (Homo sapiens [12]): 64.4%
- inhibition (Homo sapiens [27]): 72.6%
- inhibition (Homo sapiens [15]): 60%
